Reference: the supplement of paper PMC10307832

What was measured:
Assay in all cases: relative viability (nuclei count vs DMSO), 5 days (fraction); higher = more cells survive
[1] = tested on: 201T
Outline: (§1)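 Dosing by pin tool came one day after lung cancer cell lines were seeded in 1536-well plates, using either one drug or a fixed anchor-drug dose plus five library-drug doses (not always all listed) in √10 steps. After 5 days, nuclei were counted on 4× images. Relative viability is treated-well nuclei count divided by vehicle-well nuclei count, and values are medians of duplicate plates.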

[2] = tested on: HCC-15
Outline: as §1

[3] = tested on: COR-L 105
Outline: as §1

[4] = tested on: LC-2-ad
Outline: as §1

[5] = tested on: LU99A
Outline: as §1

[6] = tested on: NCI-H596
Outline: as §1

[7] = tested on: COR-L23
Outline: as §1

[8] = tested on: HCC-366
Outline: as §1

[9] = tested on: NCI-H3122
Outline: as §1

[10] = tested on: HCC-78
Outline: as §1

[11] = tested on: NCI-H1993
Outline: as §1

[12] = tested on: EKVX
Outline: as §1

[13] = tested on: NCI-H1944
Outline: as §1

[14] = tested on: HCC-827
Outline: as §1

[15] = tested on: NCI-H1650
Outline: as §1

[16] = tested on: HARA
Outline: as §1

[17] = tested on: SK-LU-1
Outline: as §1

[18] = tested on: BEN
Outline: as §1

[19] = tested on: LXF-289
Outline: as §1

[20] = tested on: NCI-H1975
Outline: as §1

[21] = tested on: NCI-H1734
Outline: as §1

[22] = tested on: NCI-H1755
Outline: as §1

[23] = tested on: RERF-LC-KJ
Outline: as §1

Q: What does the source list for `Cc1cnc(-c2cnc(NCCNc3ccc(C#N)cn3)nc2-c2ccc(Cl)cc2Cl)[nH]1` + COc1cc2c(Oc3ccc(NC(=O)C4(C(=O)Nc5ccc(F)cc5)CC4)cc3F)ccnc2cc1OCCCN1CCOCC1 [Foretinib] (partner 0.25 µM)?
A: relative viability ([1]; first compound 0.08 µM): 1.19; relative viability ([1]; first compound 0.253 µM): 0.807; relative viability ([1]; first compound 0.8 µM): 1.16; relative viability ([1]; first compound 2.53 µM): 1.14; relative viability ([2]; first compound 0.08 µM): 1.12; relative viability ([2]; first compound 0.253 µM): 0.895; relative viability ([2]; first compound 0.8 µM): 1.02; relative viability ([2]; first compound 2.53 µM): 0.941; relative viability ([3]; first compound 0.08 µM): 0.906; relative viability ([3]; first compound 0.253 µM): 1.03; relative viability ([3]; first compound 0.8 µM): 0.943; relative viability ([3]; first compound 2.53 µM): 0.868; relative viability ([4]; first compound 0.08 µM): 0.996; relative viability ([4]; first compound 0.253 µM): 0.711; relative viability ([4]; first compound 2.53 µM): 1.03; relative viability ([5]; first compound 0.08 µM): 0.908; relative viability ([5]; first compound 0.253 µM): 0.701; relative viability ([5]; first compound 0.8 µM): 0.83; relative viability ([5]; first compound 2.53 µM): 0.765; relative viability ([6]; first compound 0.08 µM): 0.929; relative viability ([6]; first compound 0.253 µM): 0.776; relative viability ([6]; first compound 0.8 µM): 0.872; relative viability ([6]; first compound 2.53 µM): 0.827; relative viability ([7]; first compound 0.08 µM): 0.853; relative viability ([7]; first compound 0.253 µM): 0.877; relative viability ([7]; first compound 0.8 µM): 1.08; relative viability ([7]; first compound 2.53 µM): 0.951; relative viability ([8]; first compound 0.08 µM): 1.01; relative viability ([8]; first compound 0.253 µM): 0.964; relative viability ([8]; first compound 0.8 µM): 0.892; relative viability ([8]; first compound 2.53 µM): 0.922; relative viability ([9]; first compound 0.08 µM): 0.943; relative viability ([9]; first compound 0.8 µM): 0.935; relative viability ([9]; first compound 2.53 µM): 0.914; relative viability ([10]; first compound 0.08 µM): 0.471; relative viability ([10]; first compound 0.253 µM): 0.488; relative viability ([10]; first compound 0.8 µM): 0.525; relative viability ([10]; first compound 2.53 µM): 0.568; relative viability ([11]; first compound 0.08 µM): 0.902; relative viability ([11]; first compound 0.253 µM): 0.652; relative viability ([11]; first compound 0.8 µM): 0.754; relative viability ([11]; first compound 2.53 µM): 0.889; relative viability ([12]; first compound 0.08 µM): 0.588; relative viability ([12]; first compound 0.253 µM): 0.555; relative viability ([12]; first compound 0.8 µM): 0.626; relative viability ([12]; first compound 2.53 µM): 0.727; relative viability ([13]; first compound 0.08 µM): 0.885; relative viability ([13]; first compound 0.8 µM): 0.902; relative viability ([13]; first compound 2.53 µM): 0.91; relative viability ([14]; first compound 0.08 µM): 1.04; relative viability ([14]; first compound 0.8 µM): 0.983; relative viability ([14]; first compound 2.53 µM): 0.976; relative viability ([15]; first compound 0.08 µM): 1.37; relative viability ([15]; first compound 0.253 µM): 1.22; relative viability ([15]; first compound 0.8 µM): 1.25; relative viability ([15]; first compound 2.53 µM): 1.01; relative viability ([16]; first compound 0.08 µM): 1; relative viability ([16]; first compound 0.253 µM): 0.773; relative viability ([16]; first compound 0.8 µM): 0.818; relative viability ([16]; first compound 2.53 µM): 0.877; relative viability ([17]; first compound 0.08 µM): 0.865; relative viability ([17]; first compound 0.253 µM): 0.833; relative viability ([17]; first compound 0.8 µM): 0.983; relative viability ([17]; first compound 2.53 µM): 1.03; relative viability ([18]; first compound 0.08 µM): 0.857; relative viability ([18]; first compound 0.253 µM): 0.68; relative viability ([18]; first compound 0.8 µM): 0.746; relative viability ([18]; first compound 2.53 µM): 0.69; relative viability ([19]; first compound 0.08 µM): 1.03; relative viability ([19]; first compound 0.253 µM): 0.858; relative viability ([19]; first compound 0.8 µM): 0.994; relative viability ([19]; first compound 2.53 µM): 1.02; relative viability ([20]; first compound 0.08 µM): 0.928; relative viability ([20]; first compound 0.253 µM): 0.911; relative viability ([20]; first compound 0.8 µM): 0.771; relative viability ([20]; first compound 2.53 µM): 0.573; relative viability ([21]; first compound 0.08 µM): 0.926; relative viability ([21]; first compound 0.253 µM): 0.762; relative viability ([21]; first compound 0.8 µM): 0.834; relative viability ([21]; first compound 2.53 µM): 0.83; relative viability ([22]; first compound 0.08 µM): 0.936; relative viability ([22]; first compound 0.253 µM): 0.808; relative viability ([22]; first compound 0.8 µM): 0.982; relative viability ([22]; first compound 2.53 µM): 0.972; relative viability ([23]; first compound 0.08 µM): 0.906; relative viability ([23]; first compound 0.253 µM): 0.796; relative viability ([23]; first compound 0.8 µM): 0.826; relative viability ([23]; first compound 2.53 µM): 0.832
